Measurements reported in patent US20210346326A1, “COMPOSITIONS AND METHODS FOR ALTERING NEUTROPHIL MIGRATION AND METASTASIS” (The Wistar Institute of Anatomy and Biology, priority 2018, published 2021).
Where two headings read alike, the source gives them in different places.

Legend:
[1] = test system: BM neutrophils from control mice; assay: Transwell assay of spontaneous migration of control neutrophils; format: cell-based, mouse
Description: (§1) FIG. 7A-FIG. 7H. PM-LC spontaneous migration is dependent upon pannexin-1 hemichannels, extracellular ATP, and P2X and P2Y receptors. (FIG. 7A) Transwell assays evaluating the ability of PM-LC from one-week LL2 mice (left) (n=3) and RET mice (right) (n=5) to spontaneously migrate upon pannexin-1 hemichannel inhibition (panx). (FIG. 7B) Transwell assays evaluating the ability of neutrophils from control mice (n=8) and PM-LC from one-week LL2 mice (n=10) to spontaneously migrate upon apyrase treatment. […] In addition, the ability of PM-LC from RET melanoma mice (n=3) to spontaneously migrate was also evaluated in the presence of P2Y inhibitors MRS2179 and AR-C118925XX. […] P values are calculated in two-sided Student's t-test. *−p<0.05; **−p<0.01; ***−p<0.001 (FIG. 7H) pMLC2 in BM neutrophils isolated from naive mice and one-week LL2 TB mice. […]
(§2) Unstimulated migration and chemotaxis was measured using a 3 μm pore transwell system (Neuro Probe Inc. or Sigma-Aldrich). […] 10 μl media was taken from the bottom wells and counted by hemocytometer. The quantification of migrated neutrophils was done using the formula N=n×10^4×0.029 reflecting 29 µl media in the bottom well.

[2] = test system: PMN-MDSC from 3-week LL2 mice; assay: Transwell assay of migration of PMN-MDSC; format: cell-based, mouse; conditions: different concentrations of ADP
Description: as §1, §2

PM-LC = assay: Transwell assay of spontaneous migration of PM-LC; format: cell-based, mouse; conditions: for spontaneous migration of PM-LC: PM-LC from one-week LL2 TB mice, agent 10 min prior to plating, 1 hour
Description: FIG. 7A-FIG. 7H. PM-LC spontaneous migration is dependent upon pannexin-1 hemichannels, extracellular ATP, and P2X and P2Y receptors. (FIG. 7A) Transwell assays evaluating the ability of PM-LC from one-week LL2 mice (left) (n=3) and RET mice (right) (n=5) to spontaneously migrate upon pannexin-1 hemichannel inhibition (panx). (FIG. 7B) Transwell assays evaluating the ability of neutrophils from control mice (n=8) and PM-LC from one-week LL2 mice (n=10) to spontaneously migrate upon apyrase treatment. (FIG. 7C-FIG. 7F) Transwell assays evaluating the ability of neutrophils from control mice (n=6) and PM-LC from one-week LL2 mice (n=7) to spontaneously migrate upon pan P2R inhibitor, P2XR, P2X1, P2Y, and A3R inhibition with suramin, NF449, MRS2179, AR-C118925XX, and MRS 1191, respectively. In addition, the ability of PM-LC from RET melanoma mice (n=3) to spontaneously migrate was also evaluated in the presence of P2Y inhibitors MRS2179 and AR-C118925XX. Individual values and mean and SD are shown. (FIG. 7G) Migration of BM neutrophils from control mice (n=3) and PMN-MDSC from 3-week LL2 mice (n=3) in response to stimulation with different concentrations of ADP. Mean and SD are shown. P values are calculated in two-sided Student's t-test. *−p<0.05; **−p<0.01; ***−p<0.001 (FIG. 7H) pMLC2 in BM neutrophils isolated from naive mice and one-week LL2 TB mice. Experiments were performed three times with similar results.
Unstimulated migration and chemotaxis was measured using a 3 μm pore transwell system (Neuro Probe Inc. or Sigma-Aldrich). Advanced RPMI with CXCL1 (BioLegend) or fMLP (Sigma-Aldrich) was placed in the bottom of the transwell, as indicated. 0.1×10^6 or 0.5×10^6 cells were incubated with pannexin inhibitor (^10Panx; Tocris), scrambled ^10Panx (Tocris), pan-P2XR inhibitor suramin (R&D Systems), P2X1 inhibitor NF 449 (Tocris), A3R inhibitor MRS 1191 (Santa Cruz), or apyrase (New England Biolabs) in Advanced RPMI for 10 min prior to being plated on top of the Neuro Probe system or Sigma-Aldrich system filter, respectively, and placed at 37° C., 5% CO2 for 1 hour. 10 μl media was taken from the bottom wells and counted by hemocytometer. The quantification of migrated neutrophils was done using the formula N=n×10^4×0.029 reflecting 29 µl media in the bottom well.

pMLC2 = pMLC2 Western blot in PM-LC; format: cell-based, mouse; conditions: PM-LC from one-week LL2 TB mice; treated 1 hour before Western blot
Protocol: FIG. 15A-FIG. 15E. Expression of F-actin and genes associated with the glycolytic pathway. (FIG. 15A) Expression of indicated genes in neutrophils from control and RET melanoma mice measured in real-time quantitative PCR (n=3). Individual results for each mouse, mean and SD are shown. (FIG. 15B) F-actin was measured using flow cytometry before and after stimulation with CXCL1 or fMLP in BM neutrophils from indicated tumor models. Typical example of 4 experiments is shown. (FIG. 15C) F-actin in unstimulated cells evaluated by flow cytometry. Individual results for each mouse, mean and SD are shown. (FIG. 15D) F-actin in neutrophils and PMN-MDSC measured by flow cytometry (n=4). Individual results for each mouse, mean and SD are shown. Significant p values in two-sided Student's t-test are shown. (FIG. 15E) pMLC2 in neutrophils from control tumor-free and one-week LLC TB mice. Neutrophils were treated with vehicle alone or with P2Y2 inhibitor (ARC) for 1 hour before Western blot analysis. Two experiments with similar results were performed.

[3] = rats, compared to controls; cited from earlier work
P2Y1 receptor = P2Y1 receptor (Homo sapiens, UniProt P47900); conditions: in vitro; cited from earlier work
[4] = mice, compared to controls; cited from earlier work
[5] = test system: P2 receptors such as P2X3, P2Y1, and P2Y2, P2X1; conditions: cited from earlier work

Sequence of P2Y1 receptor (P47900 whole entry): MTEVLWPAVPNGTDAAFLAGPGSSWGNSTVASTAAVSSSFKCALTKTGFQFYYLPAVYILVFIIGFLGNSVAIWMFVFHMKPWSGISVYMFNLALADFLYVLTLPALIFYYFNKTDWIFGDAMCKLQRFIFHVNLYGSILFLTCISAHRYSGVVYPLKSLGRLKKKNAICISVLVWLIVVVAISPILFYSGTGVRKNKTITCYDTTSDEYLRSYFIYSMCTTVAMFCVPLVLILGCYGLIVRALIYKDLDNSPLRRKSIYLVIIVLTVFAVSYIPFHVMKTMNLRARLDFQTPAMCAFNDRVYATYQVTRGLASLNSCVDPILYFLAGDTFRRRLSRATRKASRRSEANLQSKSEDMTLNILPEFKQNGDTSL

Molecule: Nc1ncnc2c1ncn2[C@@H]1O[C@H](COP(=O)(O)OP(=O)(O)O)[C@@H](O)[C@H]1O [ADP]
- migration of control neutrophils on stimulation ([1]; BM neutrophils from control mice, different concentrations of ADP): significantly increased migration
- migration of PMN-MDSC on stimulation [2]: significantly increased migration

Molecule: Cc1ccc2c(c1)C=Cc1cc(C)ccc1C2c1cn(Cc2ccc(C(=O)Nc3nn[nH]n3)o2)c(=O)[nH]c1=S [AR-C118925XX, 5-[[5-(2,8-Dimethyl-5H-dibenzo[a,d]cyclohepten-5-yl)-3,4-dihydro-2-oxo-4-thioxo-1(2H)-pyrimidinyl]methyl]-N-2H-tetrazol-5-yl-2-furancarboxamide]
- spontaneous migration of PM-LC (PM-LC): completely abrogated the increased spontaneous migration
- up-regulation of pMLC2 in PM-LC (pMLC2): abrogated

Molecule: CNc1ncnc2c1ncn2[C@H]1C[C@H](OP(=O)(O)O)[C@@H](COP(=O)(O)O)O1.N [MRS2179, 3′-adenylic acid, 2′-deoxy-N-methyl-5′-(dihydrogen phosphate), ammonium salt]
- bleeding time [3]: prolongs bleeding time
- pA2, inhibition of ADP-induced platelet shape change and aggregation (P2Y1 receptor): 6.55
- spontaneous migration of PM-LC (PM-LC): completely abrogated the increased spontaneous migration
- bleeding time [4]: prolongs bleeding time

Molecule: CCOC(=O)C1=C(C)NC(c2ccccc2)=C(C(=O)OCc2ccccc2)C1C#Cc1ccccc1 (centres unmarked) [MRS 1191]
- spontaneous migration of PM-LC (PM-LC): did not affect

Molecule: O=C(Nc1cc(C(=O)Nc2ccc(S(=O)(=O)[O-])cc2S(=O)(=O)[O-])cc(C(=O)Nc2ccc(S(=O)(=O)[O-])cc2S(=O)(=O)[O-])c1)Nc1cc(C(=O)Nc2ccc(S(=O)(=O)[O-])cc2S(=O)(=O)[O-])cc(C(=O)Nc2ccc(S(=O)(=O)[O-])cc2S(=O)(=O)[O-])c1.[Na+].[Na+].[Na+].[Na+].[Na+].[Na+].[Na+].[Na+] [NF449, 4,4′,4″,4″′-[Carbonylbis(imino-5,1,3-benzenetriyl-bis(carbonylimino))]tetrakis-1,3-benzen edisulfonic acid octasodium salt]
- selectivity among P2 receptors [5]: highest selectivity towards P2X1
- inhibition of the ability of PM-LCs to spontaneously migrate (PM-LC; PM-LC from one-week LL2 mice): 50%

Molecule: Cc1ccc(C(=O)Nc2ccc(S(=O)(=O)O)c3cc(S(=O)(=O)O)cc(S(=O)(=O)O)c23)cc1NC(=O)c1cccc(NC(=O)Nc2cccc(C(=O)Nc3cc(C(=O)Nc4ccc(S(=O)(=O)O)c5cc(S(=O)(=O)O)cc(S(=O)(=O)O)c45)ccc3C)c2)c1 [suramin]
- spontaneous migration of PM-LC (PM-LC): completely abrogated

Molecule: apyrase
- spontaneous migration of PM-LC (PM-LC): completely abrogated
- spontaneous migration of control neutrophils ([1]; neutrophils from control mice, Transwell): completely abrogated
